The results in this text go back to ChEMBL document CHEMBL5678818, “Discovery of potent SOS1 inhibitors that block RAS activation via disruption of the RAS-SOS1 interaction” (Proc Natl Acad Sci U S A, 2019).

Each structure is given as a SMILES string.

Experiment [1] deals with Homeodomain-interacting protein kinase 2 (Homo sapiens) (UniProt Q9H2X6). Put plainly: Inhibition of HIPK2 (unknown origin) assessed as residual activity at 1000 nM by KINOMEscan analysis relative to control.
In experiment [2] the target is T1, Dual specificity mitogen-activated protein kinase kinase 3 (Homo sapiens) (UniProt P46734).
T1 sequence (whole entry): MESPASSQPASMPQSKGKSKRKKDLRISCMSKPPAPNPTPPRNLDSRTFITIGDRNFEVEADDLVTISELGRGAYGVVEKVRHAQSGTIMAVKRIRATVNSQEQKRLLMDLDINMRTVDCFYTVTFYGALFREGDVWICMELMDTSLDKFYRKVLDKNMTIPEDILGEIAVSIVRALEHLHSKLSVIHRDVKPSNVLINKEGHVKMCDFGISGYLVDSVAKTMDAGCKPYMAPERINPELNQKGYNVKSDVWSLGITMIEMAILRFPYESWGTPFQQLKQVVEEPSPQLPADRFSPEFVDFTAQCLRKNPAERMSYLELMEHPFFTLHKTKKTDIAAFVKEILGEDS
The experiment is described as follows: Inhibition of MEK3 (unknown origin) assessed as residual activity at 1000 nM by KINOMEscan analysis relative to control.

In experiment [3] the target is T2, Serine/threonine-protein kinase BRSK2 (Homo sapiens) (UniProt Q8IWQ3).
T2 sequence (whole entry): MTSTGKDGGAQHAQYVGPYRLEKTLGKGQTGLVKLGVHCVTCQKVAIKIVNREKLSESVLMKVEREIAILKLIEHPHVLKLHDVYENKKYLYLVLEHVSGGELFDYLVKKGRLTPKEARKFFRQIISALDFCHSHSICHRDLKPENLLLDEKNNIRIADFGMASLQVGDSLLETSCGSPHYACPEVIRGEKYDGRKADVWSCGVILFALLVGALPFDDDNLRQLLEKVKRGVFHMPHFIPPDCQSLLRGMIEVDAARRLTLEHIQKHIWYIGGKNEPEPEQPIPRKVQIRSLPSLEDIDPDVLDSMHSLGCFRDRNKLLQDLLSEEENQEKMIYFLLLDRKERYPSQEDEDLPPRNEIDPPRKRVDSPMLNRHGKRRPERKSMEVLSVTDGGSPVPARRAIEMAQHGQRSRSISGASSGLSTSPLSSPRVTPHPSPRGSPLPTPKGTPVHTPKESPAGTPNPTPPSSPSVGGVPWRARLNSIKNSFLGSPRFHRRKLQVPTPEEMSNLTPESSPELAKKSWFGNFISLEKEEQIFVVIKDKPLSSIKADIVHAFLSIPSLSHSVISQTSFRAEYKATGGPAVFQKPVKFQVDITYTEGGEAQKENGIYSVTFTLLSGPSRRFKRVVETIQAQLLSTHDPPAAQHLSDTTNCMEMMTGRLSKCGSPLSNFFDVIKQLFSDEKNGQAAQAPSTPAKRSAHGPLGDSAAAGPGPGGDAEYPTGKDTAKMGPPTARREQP
The experiment is described as follows: Inhibition of BRSK2 (unknown origin) assessed as residual activity at 1000 nM by KINOMEscan analysis relative to control.

Experiment [4] deals with Cyclin-dependent kinase 8 (Homo sapiens) (UniProt P49336). The experiment is described as follows: Inhibition of CDK8 (unknown origin) assessed as residual activity at 1000 nM by KINOMEscan analysis relative to control.
The target of experiment [5] is T3, Serine/threonine-protein kinase DCLK1 (Homo sapiens) (UniProt O15075).
T3 sequence (whole entry): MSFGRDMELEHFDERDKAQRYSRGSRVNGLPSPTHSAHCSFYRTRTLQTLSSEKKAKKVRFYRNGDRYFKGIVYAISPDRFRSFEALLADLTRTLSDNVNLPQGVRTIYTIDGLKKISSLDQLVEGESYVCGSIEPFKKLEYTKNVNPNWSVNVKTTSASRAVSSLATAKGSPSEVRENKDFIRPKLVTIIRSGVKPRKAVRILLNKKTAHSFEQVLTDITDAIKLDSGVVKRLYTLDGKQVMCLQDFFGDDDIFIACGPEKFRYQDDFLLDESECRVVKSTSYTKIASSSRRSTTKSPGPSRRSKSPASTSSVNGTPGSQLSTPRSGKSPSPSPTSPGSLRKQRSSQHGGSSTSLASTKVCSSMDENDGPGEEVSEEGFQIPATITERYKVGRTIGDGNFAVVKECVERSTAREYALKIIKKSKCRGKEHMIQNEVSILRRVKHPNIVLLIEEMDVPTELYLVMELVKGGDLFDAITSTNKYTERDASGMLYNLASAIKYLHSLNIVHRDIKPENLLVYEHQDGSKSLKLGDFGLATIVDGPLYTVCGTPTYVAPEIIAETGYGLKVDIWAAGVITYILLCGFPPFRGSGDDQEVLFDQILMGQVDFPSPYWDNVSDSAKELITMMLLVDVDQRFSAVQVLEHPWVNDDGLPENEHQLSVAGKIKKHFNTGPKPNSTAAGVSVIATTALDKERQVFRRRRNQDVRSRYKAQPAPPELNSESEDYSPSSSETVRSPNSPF
Put plainly: Inhibition of DCAMKL1 (unknown origin) assessed as residual activity at 1000 nM by KINOMEscan analysis relative to control.

In experiment [6] the target is T4, Mitogen-activated protein kinase 15 (Homo sapiens) (UniProt Q8TD08).
T4 sequence (whole entry): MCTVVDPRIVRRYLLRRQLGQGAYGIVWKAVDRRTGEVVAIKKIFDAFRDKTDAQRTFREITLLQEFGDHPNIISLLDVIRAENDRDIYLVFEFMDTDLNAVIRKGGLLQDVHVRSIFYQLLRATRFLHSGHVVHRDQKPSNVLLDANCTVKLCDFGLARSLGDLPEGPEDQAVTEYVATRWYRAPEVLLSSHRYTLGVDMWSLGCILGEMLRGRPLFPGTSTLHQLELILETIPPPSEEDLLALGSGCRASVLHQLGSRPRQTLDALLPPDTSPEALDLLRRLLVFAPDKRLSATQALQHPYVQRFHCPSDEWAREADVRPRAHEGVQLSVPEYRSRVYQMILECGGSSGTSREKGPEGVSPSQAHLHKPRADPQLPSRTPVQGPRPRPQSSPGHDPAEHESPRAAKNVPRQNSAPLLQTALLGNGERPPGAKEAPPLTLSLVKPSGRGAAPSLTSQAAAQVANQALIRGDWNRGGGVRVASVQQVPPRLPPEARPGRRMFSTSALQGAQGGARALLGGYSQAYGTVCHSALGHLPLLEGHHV
Put plainly: Inhibition of ERK8 (unknown origin) assessed as residual activity at 1000 nM by KINOMEscan analysis relative to control.

Experiment [7] deals with Mitogen-activated protein kinase kinase kinase kinase 1 (Homo sapiens) (UniProt Q92918). The experiment is described as follows: Inhibition of HPK1 (unknown origin) assessed as residual activity at 1000 nM by KINOMEscan analysis relative to control.
Sequence of Mitogen-activated protein kinase kinase kinase kinase 1 (Homo sapiens) (Q92918 whole entry, looked up): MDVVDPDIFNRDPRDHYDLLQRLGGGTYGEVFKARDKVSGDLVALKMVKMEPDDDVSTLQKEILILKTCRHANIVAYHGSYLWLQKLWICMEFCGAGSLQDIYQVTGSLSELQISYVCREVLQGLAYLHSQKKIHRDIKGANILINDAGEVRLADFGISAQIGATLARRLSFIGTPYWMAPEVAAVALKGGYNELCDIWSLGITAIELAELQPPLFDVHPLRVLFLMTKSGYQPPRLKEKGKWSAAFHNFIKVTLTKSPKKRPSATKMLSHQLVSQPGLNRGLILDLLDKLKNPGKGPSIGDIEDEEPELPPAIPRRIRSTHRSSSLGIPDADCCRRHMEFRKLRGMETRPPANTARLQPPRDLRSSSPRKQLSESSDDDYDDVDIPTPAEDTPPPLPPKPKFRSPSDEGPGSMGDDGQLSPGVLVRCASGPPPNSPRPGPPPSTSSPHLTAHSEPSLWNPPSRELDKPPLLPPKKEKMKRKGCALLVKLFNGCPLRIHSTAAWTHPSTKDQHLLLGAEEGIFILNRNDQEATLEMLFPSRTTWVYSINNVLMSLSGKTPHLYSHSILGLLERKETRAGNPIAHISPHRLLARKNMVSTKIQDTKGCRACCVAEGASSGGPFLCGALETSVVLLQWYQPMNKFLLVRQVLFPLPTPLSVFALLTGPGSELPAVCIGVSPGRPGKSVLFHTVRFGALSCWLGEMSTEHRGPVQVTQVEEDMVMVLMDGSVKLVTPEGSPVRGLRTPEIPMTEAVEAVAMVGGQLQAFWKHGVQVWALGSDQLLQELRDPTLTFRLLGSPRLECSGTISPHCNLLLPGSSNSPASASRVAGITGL

Sequence of Cyclin-dependent kinase 8 (Homo sapiens) (P49336 whole entry): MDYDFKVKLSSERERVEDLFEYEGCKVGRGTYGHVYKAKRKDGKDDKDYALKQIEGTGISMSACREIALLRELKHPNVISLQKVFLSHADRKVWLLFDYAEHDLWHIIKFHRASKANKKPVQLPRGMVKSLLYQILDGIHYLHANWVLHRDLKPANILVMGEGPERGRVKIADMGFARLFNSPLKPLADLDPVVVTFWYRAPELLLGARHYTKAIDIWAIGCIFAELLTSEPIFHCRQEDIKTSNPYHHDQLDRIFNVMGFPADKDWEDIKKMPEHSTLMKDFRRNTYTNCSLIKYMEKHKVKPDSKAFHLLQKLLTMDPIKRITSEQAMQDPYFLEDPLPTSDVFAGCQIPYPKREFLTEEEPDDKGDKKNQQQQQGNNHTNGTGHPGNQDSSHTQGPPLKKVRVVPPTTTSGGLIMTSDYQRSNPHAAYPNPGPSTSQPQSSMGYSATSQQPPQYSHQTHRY
Sequence of Homeodomain-interacting protein kinase 2 (Homo sapiens) (Q9H2X6 whole entry, looked up): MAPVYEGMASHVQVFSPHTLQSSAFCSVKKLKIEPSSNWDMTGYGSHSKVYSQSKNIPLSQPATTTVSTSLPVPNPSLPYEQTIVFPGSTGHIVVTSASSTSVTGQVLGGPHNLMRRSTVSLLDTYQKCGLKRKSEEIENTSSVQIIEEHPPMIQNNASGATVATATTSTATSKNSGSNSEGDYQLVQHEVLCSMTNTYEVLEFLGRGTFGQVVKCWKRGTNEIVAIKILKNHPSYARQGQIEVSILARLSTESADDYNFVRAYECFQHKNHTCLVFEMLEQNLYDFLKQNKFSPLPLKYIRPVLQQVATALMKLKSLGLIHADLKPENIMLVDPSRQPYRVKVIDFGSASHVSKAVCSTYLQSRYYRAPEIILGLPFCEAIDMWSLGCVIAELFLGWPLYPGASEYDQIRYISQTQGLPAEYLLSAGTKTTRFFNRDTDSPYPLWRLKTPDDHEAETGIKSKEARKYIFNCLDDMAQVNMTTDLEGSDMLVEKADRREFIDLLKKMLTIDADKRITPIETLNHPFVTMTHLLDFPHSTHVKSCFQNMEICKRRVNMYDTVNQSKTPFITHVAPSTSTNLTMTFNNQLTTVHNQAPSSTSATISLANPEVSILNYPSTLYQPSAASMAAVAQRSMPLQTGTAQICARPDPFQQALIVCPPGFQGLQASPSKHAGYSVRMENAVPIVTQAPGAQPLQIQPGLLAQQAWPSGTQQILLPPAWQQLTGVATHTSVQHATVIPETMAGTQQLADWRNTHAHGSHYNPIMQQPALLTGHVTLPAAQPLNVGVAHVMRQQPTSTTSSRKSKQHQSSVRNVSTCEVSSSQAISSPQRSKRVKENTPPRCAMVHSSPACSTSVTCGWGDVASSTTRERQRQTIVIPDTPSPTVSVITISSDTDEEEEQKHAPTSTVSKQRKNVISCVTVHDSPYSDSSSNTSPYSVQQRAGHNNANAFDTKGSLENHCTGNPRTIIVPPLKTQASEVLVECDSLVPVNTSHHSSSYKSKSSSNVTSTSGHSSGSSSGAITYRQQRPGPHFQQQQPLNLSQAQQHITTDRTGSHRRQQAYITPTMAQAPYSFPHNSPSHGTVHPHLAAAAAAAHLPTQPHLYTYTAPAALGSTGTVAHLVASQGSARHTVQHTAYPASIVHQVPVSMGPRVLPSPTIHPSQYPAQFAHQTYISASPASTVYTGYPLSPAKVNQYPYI

As for `COc1cc2ncnc(N[C@H](C)c3cccc4ccccc34)c2cc1OC`, the Activity in experiment [1] was found to be 98%; in experiment [2] it was 100%; in experiment [3] it was 78%; in experiment [4], 93%; in experiment [5] it was 76%; in experiment [6] it was 100%. Moreover, the Activity in experiment [7] amounted to 100%.
As to `COc1cc2nc(C)nc(N[C@H](C)c3cccc(-c4cn[nH]c4)c3)c2cc1OC`, the Activity in experiment [1] is 100%; in experiment [2], 54%; in experiment [3], 85%; in experiment [4] it was 91%; in experiment [5], 64%; in experiment [6] it was 60%. Also, in experiment [7], the Activity was 97%.
